Where two headings read alike, the source gives them in different places.
Experiments:
Candida albicans = test: MIC and MFC determination, microdilution method; format: cell-based; settings: for MIC: 24 h, read-out: MIC, C. albicans; for MFC: read-out: MFC, C. albicans
Experimental: (§1) The antimicrobial activities of the compounds were tested against clinical strains of an aerobic Gram-negative bacterium—Pseudomonas aeruginosa (P. aeruginosa), facultative anaerobic Gram-positive bacteria—Staphylococcus aureus (S. aureus) and Staphylococcus epidermidis (S. epidermidis), anaerobic Gram-positive bacterium—Cutibacterium acnes (C. acnes), and yeast-like fungus—Candida albicans (C. albicans).
(§2) Aerobic and facultative anaerobic bacteria cultures were grown in Brain Heart Infusion broth (BHI, bioMerieux, France) at 35 °C ± 1 °C for 18 h, C. acnes cultures were grown in thioglycolate broth with resazurin (TGB, bioMerieux, France) at 35 ± 1 °C for 48 h, and yeast cultures were grown in Sabouraud dextrose broth (SDB, Merck, Germany) at 35 ± 1 °C for 24 h. After incubation, each culture was diluted in a suitable liquid medium: P. aeruginosa, S. aureus, and S. epidermidis—Mueller–Hinton broth (MHB; Oxoid, UK); C. acnes—TGB; and C. albicans—SDB, to obtain a final suspension containing about 10^6 CFU/mL.
(§3) The microdilution method was employed to determine the compounds’ MIC (Minimal Inhibitory Concentration) and MBC/MFC (Minimal Bactericidal Concentration/Minimal Fungicidal Concentration) against the tested bacterial and fungal strains.
(§4) The compounds were serially diluted (2-fold) in the respective media (P. aeruginosa, S. aureus, and S. epidermidis—MHB, C. acnes—TGB, and C. albicans—SDB in 96-well plates), and the microbial suspensions were added. The compounds were tested in the final concentration range of 4 096 to 0.125 μg/mL, and the final microbial inoculum was approximately 5 ×10^5 CFU/mL. The tests were incubated at 35 °C ± 1 °C for 18 h (P. aeruginosa, S. aureus, and S. epidermidis) or 24 h (C. albicans) or 48 h (C. acnes). C. acnes was incubated in an anaerobic atmosphere using a GENbag anaer (bioMerieux, France). Media (without the strains) added to the different concentrations of tested compounds and media inoculated with microbial suspension were used as a negative control and growth control, respectively.
(§5) The MIC was defined as the lowest concentration at which visible growth was inhibited. MBC and MFC concentrations were determined as an extension of the MIC test. […] The plates were incubated at 35 ± 1 °C for 18–72 h. C. acnes was incubated in an anaerobic atmosphere. The MBC/MFC was defined as the lowest concentration at which no growth was observed. All tests were performed in duplicate.

Artemia franciscana = test: Ecotoxicity toward aquatic life, Artoxkit M immobilization test; format: in vivo; settings: for EC50: Artemia franciscana; for Class: acute toxicity rating scale by Fish and Wildlife Service
Experimental: To determine the EC50 parameter for compounds, tests were carried out on marine crustaceans—Artemia franciscana (A. franciscana). The methodology proposed in the Artoxkit M test (MicroBioTests Inc., Gent, Belgium) was developed according to the ASTM E1440-91 standard.
The hatching process was started first. For this purpose, 50 mg of cysts was transferred to the Petri dishes attached to the Artoxkit M set, which were then immersed in 10 mL of artificial seawater with a salinity of 35‰ (a medium for the development of the tested organisms, as well as a solvent for preparing solutions of the tested compounds) and placed at a temperature of 25 °C, with access to light (6000–10,000 lux) for 30 h. Then, 2 h before placing them on the Artoxkit M plates, 20 mg of spirulina was added to cultured artemias. In addition, 1 h before the analysis, the used seawater was oxygenated by passing a stream of air through the solution. To each of the four cells in a given row of a plate from the Artoxkit M kit, 1 mL of solution at the specified concentrations (or the appropriate medium in the case of a control) were introduced. In the first column of cells (a control sample and five selected concentrations), no less than 30 artemias were placed from previously prepared Petri dishes. Then, from the first cell in the first column, artemias were collected at the selected concentration and added to the next three cells in the selected row, 10 organisms per cell. After the organisms were introduced into the appropriate cells, the plates were covered with Parafilm and then closed with a plastic cap. The prepared kit was incubated at 25 °C and protected from light. Number of motionless organisms were counted after 24 and 48 h. Immobilization was then calculated (eq 1) in relation to the number of organisms at the start of the test: [drawing 1] 1
Next, the dependence between the effect and concentration of the tested compounds was plotted, and on this basis, an EC50 value was determined.

[1] = test system: Staphylococcus epidermidis; test: MIC and MBC determination, microdilution method;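 on all read-outs here: column refers to Staphylococcus epidermidis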; format: cell-based; settings: for MIC: 18 h, read-out: MIC, S. epidermidis; for MBC: read-out: MBC, S. epidermidis
Experimental: as §1, §2, §3, §4, §5

Pseudomonas aeruginosa = test: MIC and MBC determination, microdilution method; format: cell-based; settings: for MIC: 18 h, read-out: MIC, P. aeruginosa; for MBC: read-out: MBC, P. aeruginosa
Experimental: as §1, §2, §3, §4, §5

Cutibacterium acnes = test: MIC and MBC determination, microdilution method; format: cell-based; settings: for MIC / MBC: Cutibacterium acnes; for MIC: 48 h, read-out: MIC, C. acnes; for MBC: read-out: MBC, C. acnes
Experimental: as §1, §2, §3, §4, §5

Staphylococcus aureus = test: MIC and MBC determination, microdilution method; format: cell-based; settings: for MIC: 18 h, read-out: MIC, S. aureus; for MBC: read-out: MBC, S. aureus
Experimental: as §1, §2, §3, §4, §5

[2] = Octanol–water partition coefficient, shake-flask method (OECD Test No. 107); format: physicochemical
Experimental: The octanol–water partition coefficients (KOW) of the synthesized products were estimated by the shake-flask method according to the OECD Test No. 107 guidelines (Partition Coefficient n-Octanol/Water: Shake-Flask Method). Measurements were performed using mutually saturated distilled water and 1-octanol in a glass vial containing a magnetic stir bar. First, the synthesized products were dissolved in distilled water (or 1-octanol) at a chosen concentration (0.01 mol per 1 L of octanol or water), and then proper amounts of the second solvent (octanol or water) were added. Subsequently, two duplicate runs were carried out with different solvent ratios: 4 mL of 1-octanol and 2 mL of water (2:1), 4 mL of 1-octanol and 4 mL of water (1:1), and 4 mL of 1-octanol and 8 mL of water ([…]). All vials were shaken at a constant temperature of 25 °C. After 24 h, all samples were centrifuged and the aqueous and octanolic phases were collected with a syringe. The concentrations of compounds in water were determined spectrophotometrically using a Rayleigh UV-1601 spectrophotometer (Beijing Beifen-Ruili Analytical, China) based on calibration curves made previously (at λmax = 262 nm) vs concentration for each substance. Two repetitions of each measurement were performed in a specific solvent ratio (1:1, 1:2, and 2:1). Finally, the log KOW was calculated as the average of six results collected for each compound.
The outermost layer of the skin (stratum corneum) contains around […] water, a relatively low amount compared to the rest of the human body. Given the hydrophobic nature of 1-octanol, it can be used as a simplified model for the stratum corneum.[50] The octanol–water partition coefficient (KOW) value represents the proportion between the concentrations of a substance in both liquid phases of a system composed of water and 1-octanol. […] The log KOW values are given in Figure 6 (exact values are provided in Table S4, Supporting Information).

Solubility in PBS = settings: for Solubility in PBS, Class: Pharmacopeia solubility class, PBS pH 7.4, 25 °C
Experimental: The solubility in PBS solution was determined by placing 1 g (±0.0001) of tested compound in a round-bottom flask and adding specific parts of the PBS solution in portions until full dissolution. The samples were vigorously stirred for at least 5 min before the addition of the next portion of PBS, and the systems were thermostated at 25 °C. Three repetitions of the measurement were performed for each of the compounds.
Most studies on the solubility of novel APIs are carried out with pure water, aqueous PBS solutions were much more preferred due to their higher similarity to intra- and intercellular media in epidermis, while envisaging their use in transdermal delivery and skin care applications.[60] […] The collected data are presented in Figure 8 (as well as in Table S6 in the Supporting Information).

[3] = Contact angle of aqueous solutions, sessile drop method on paraffin; format: physicochemical; settings: aqueous solution, 25 °C
Experimental: The contact angle (CA) measurements were carried out using a DSA100S analyzer (Krüss, Germany, accuracy ±0.1°), at 25 °C. The determination of the contact angle was based on the sessile drop method, i.e., drops of the analyzed solution were deposited on a solid surface (paraffin). The images of the drops were taken with a CCD camera, digitized, and evaluated using Young–Laplace fitting. The CA was determined as the slope of the tangent line at the contact point between the 3 phases (solution, paraffin surface, and air).
In the case of seborrheic skin, which occurs among many people affected by acne, the epidermis is covered by a hydrophobic lipid layer, which impedes the penetration of active substances, especially those that are well soluble in water. In addition, ensuring proper drug absorption through the skin can also reduce the risk of side effects and increase the effectiveness of therapy.[72] The addition of surfactants, which improve the wettability of hydrophobic surfaces, can be a solution to this problem.[73],[74] […] Wettability analyses of aqueous solutions of the new APIs were carried out on paraffin, whose hydrophobicity is similar to that of the human skin.[75] Experiments were performed at concentrations corresponding to common NA and SAL contents in commercial formulations (0.25–1.00%).[67],[76],[77] Due to low solubilities of 5–7, tests for these salts were performed at concentrations of 0.25, 0.03, and 0.01%, respectively (please see Figure S43 in the Supporting Information).

[4] = set-up: method as in doi:10.1080/10826076.2015.1057642, PMID 22469554, PMID 31982561; settings: frequently used topical acne agents; cited from earlier work
[5] = test system: cyclooxygenase-2 (PDB ID: 1CX2); test: Molecular docking (AutoDock4); settings: from docking IC50 values
Experimental: Docking studies were performed using the AutoDock4 program in AutoDockTools 1.5.7.[28] The structures for ligands (reference substances and N-alkylnicotinamide cations) were optimized for energy minimization using the MMFF94 force field in Avogadro 1.2.0 with the steepest descent algorithm and subsequently converted to a PDBQT format using OpenBabelGUI. The three-dimensional structure of target cyclooxygenase-2 (Protein Data Bank ID: 1CX2) was retrieved from Protein Data Bank (http://www.pdb.org) with a resolution of 3.00 Å. The protein molecule 1CX2 was prepared using AutoDockTools version 1.5.7. The preparation process involved checking for missing atoms, repairing any missing atoms, adding polar hydrogens and Kollman charges, and distributing charges over all of the atoms on residues. All cocrystallized compounds present in the 1CX2 structure (including water molecules and the ligand) were removed prior to the calculations. […] The interaction between the ligand and receptor and hydrogen bond lengths were analyzed using AutoDockTools and PLIP (Protein Ligand Interaction Profiler) developed by Biotechnology Center TU Dresden (BIOTEC).

[6] = immobilization, motionless organisms counted after 24 and 48 h, 25 °C, read-out: EC50
[7] = toxicity range of EC50, read-out: Range
[8] = shake-flask, 25 °C, 24 h, average of six results, read-out: Octanol-water partition coefficient (log Kow)
[9] = volume of PBS (pH 7.4) to dissolve 1 g, 25 °C

Row | SMILES | MIC (Candida albicans) | EC50 (Artemia franciscana; [7]) | Class (Artemia franciscana) | MIC [1] | MBC [1] | MIC (Pseudomonas aeruginosa) | MIC (Staphylococcus aureus) | MBC (Staphylococcus aureus) | logP at 24 h [2, 8] | Solubility in PBS, Class (Solubility in PBS) | Contact angle ([3]; concentration 0.25%) | Contact angle ([3]; concentration 0.50%) | Contact angle ([3]; concentration 1.00%) | Solubility in PBS, PBS [ml] (Solubility in PBS; [9]) | also measured
1 | CCCCCCCCCCCCCC[n+]1cccc(C(N)=O)c1.O=C([O-])c1ccccc1O [compound 7] | 16 µg/mL | 100 to 1000 µg/mL | Practically Nontoxic (100-1000) | 4 µg/mL | 4 µg/mL | 64 µg/mL | 0.5 µg/mL | 0.5 µg/mL | 1.34 | Very Slightly Soluble (1000-10 000) |  |  |  |  | MFC (Candida albicans): 16 µg/mL; EC50 (Artemia franciscana; [6]): 155 µg/mL; MBC (Pseudomonas aeruginosa): 64 µg/mL; MIC (Cutibacterium acnes): 4 µg/mL; MBC (Cutibacterium acnes): 4 µg/mL
2 | NC(=O)c1cccnc1 [NA, nicotinamide, reference compound] |  | > 1000 µg/mL | Relatively Harmless (>1000) |  |  |  |  |  |  |  | 112.7 ° | 110.7 ° | 110.6 ° |  | logP at 24 h [2]: -0.66; Solubility in PBS, PBS [ml] (Solubility in PBS; pH 7.4): < 1 mL
3 | CC[n+]1cccc(C(N)=O)c1.O=C([O-])c1ccccc1O [compound 1] |  | > 1000 µg/mL | Relatively Harmless (>1000) | 4100 µg/mL |  |  | 1020 µg/mL |  | -1.15 | Very Soluble (<1) | 112.1 ° | 110.3 ° | 109.7 ° | < 1 mL | 
4 | CCCC[n+]1cccc(C(N)=O)c1.O=C([O-])c1ccccc1O [compound 2] |  | > 1000 µg/mL | Relatively Harmless (>1000) | 2050 µg/mL |  |  | 1020 µg/mL |  | -0.7 | Very Soluble (<1) | 102.7 ° | 104.3 ° | 103.9 ° | < 1 mL | 
5 | NC(=O)c1cccnc1.O=C(O)c1ccccc1O [[NA][SAL], reference compound] | 2050 µg/mL |  | Practically Nontoxic (100-1000) | 2050 µg/mL | 2050 µg/mL | 2050 µg/mL | 2050 µg/mL | 2050 µg/mL |  | Sparingly Soluble (30-100) | 110.5 ° | 108.3 ° | 99.9 ° | 30 to 100 mL | Contact angle ([3]; concentration 1.00%, listed as cocrystal): 100 °; EC50 (Artemia franciscana): 565 µg/mL; EC50 (Artemia franciscana; read-out: Range): 100 to 1000 µg/mL; MBC, C. acnes (Cutibacterium acnes; clinical strain, anaerobic, tested 4 096 to 0.125 μg/mL, b = out of range): did not show bactericidal activity
6 | O=C(O)CCCCCCCC(=O)O [azelaic acid] |  |  |  |  |  |  |  |  |  |  |  |  |  |  | log KOW [4]: 1.42
7 | CCCCCCCCCCCC[n+]1cccc(C(N)=O)c1.O=C([O-])c1ccccc1O [compound 6] | 256 µg/mL | 10 to 100 µg/mL | Slightly Toxic (10-100) | 256 µg/mL | 256 µg/mL | 256 µg/mL | 8 µg/mL | 8 µg/mL | 0.6 | Very Slightly Soluble (1000-10 000) |  |  |  |  | MFC (Candida albicans): 256 µg/mL; EC50 (Artemia franciscana; [6]): 89.7 µg/mL; times more potent than NA itself [5]: 125 times; MBC (Pseudomonas aeruginosa): 256 µg/mL; MIC (Cutibacterium acnes): 64 µg/mL; MBC (Cutibacterium acnes): 64 µg/mL
